The values below come from ChEMBL document CHEMBL1201862, “PubChem BioAssay data set” (2004).

Holding throughout (assay): DTP human tumour cell line panel, 48 h
The test system of test [1] is CAKI-1.
For test [2], the system named is EKVX.
Test [3] deals with HL-60.
Test [4] concerns M14.
In test [5] the test system is MDA-MB-435.
Test [6] relates to MDA-N.
Test [7] deals with NCI-H23.
Test [8] relates to OVCAR-3.
For test [9], the system named is OVCAR-5.
Test [10] deals with PC-3.
The test system of test [11] is SF-295.
Test [12] deals with SK-MEL-5.
Test [13] has as its system SN12C.
Test [14] relates to SNB-75.
Test [15] has as its system SW-620.
In test [16] the test system is T47D.
Test [17] has as its system TK-10.
The test system of test [18] is UACC-257.
The subject of test [19] is UACC-62.
Test [20] concerns SF-539.

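Growth conditions: 96-well plates. Treatment: test compound, 48 hours, 5 concentrations. Analysis: linear interpolation between bracketing concentrations; unreached endpoints set to highest concentration. GI50 is the concentration that inhibits growth by half.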 Calls of active or inactive are those of the source. No stated cut-off is given here; in the data, active = GI50 up to about 1.1 µM and inactive = higher. Bounds are passed on as bounds.

`COc1cccc(C2CC(C)(O)Oc3cc4c(cc32)OCO4)c1` (stereo unspecified): the GI50 in test [1] is 29 µM (inactive); in test [2] it was 36.1 µM (inactive); in test [3], 17.2 µM (inactive); in test [4] it was 12.5 µM (inactive); in test [5] it was 3.3 µM (inactive); in [6], 2.82 µM (inactive). Moreover, the GI50 in test [7] is 28.1 µM (inactive); in test [8], 19.4 µM (inactive); in test [9] it was 35.8 µM (inactive); in test [10], 25.1 µM (inactive); in test [11], 17.8 µM (inactive); in [12] it was 14.2 µM (inactive). For the same molecule, the GI50 in test [13] was 27.3 µM (inactive); in test [14], 18.6 µM (inactive); in test [15], 7.31 µM (inactive); in test [16], 27.8 µM (inactive); in [17], 21.1 µM (inactive); in [18], 37.6 µM (inactive). In addition, the GI50 in [19] is 14.4 µM (inactive).

For the molecule `O=C(NC(Cc1ccccc1)P(=O)(O)c1ccccc1)OCc1ccccc1` (stereo unspecified), the GI50 in test [1], in test [2], in test [3], in test [4], in test [5] and in test [6] was > 100 µM (inactive) in each case. Also, the GI50 in test [7], in test [8], in test [9], in [10], in [11] and in test [12] was > 100 µM (inactive) each time. The GI50 in [13], in [14], in test [15], in test [16], in [17] and in [18] was > 100 µM (inactive) throughout. For the same molecule, in [19], the GI50 is > 100 µM (inactive).

On to `C=CCOC(=O)CCCCCCCCCCCCCCCOC(=O)C1=C(CCC[C@@H](C)O[Si](C)(C)C(C)(C)C)NC(=O)N2[C@H](CC3(CC/C=C\[C@H](CC)O[Si](C(C)C)(C(C)C)C(C)C)OCCO3)CC[C@H]12`, for which the GI50 in [1], in [2], in test [4], in test [5], in test [6] and in [7] was > 100 µM (inactive) in each case. Also, the GI50 in [8] is > 100 µM (inactive); in test [9], > 100 µM (inactive); in test [10], > 100 µM (inactive); in test [11], > 100 µM (inactive); in test [20] it was 67.3 µM (inactive); in test [12], > 100 µM (inactive). In addition, the GI50 in test [13], in test [14], in test [16], in [17], in [18] and in test [19] was > 100 µM (inactive) throughout.

In the case of `Sc1nnc(Cc2ccc(Cl)cc2)[nH]1`, the GI50 was 56.2 µM (inactive) in test [1]; 47.1 µM (inactive) in test [2]; > 100 µM (inactive) in test [4]; 88.3 µM (inactive) in [5]; > 100 µM (inactive) in [6]; 26.6 µM (inactive) in [7]. In addition, the GI50 in test [8] was > 100 µM (inactive); in [9] it was > 100 µM (inactive); in test [10], 49.1 µM (inactive); in test [11] it was 43.7 µM (inactive); in test [20], 66.4 µM (inactive); in test [12], 39.6 µM (inactive). The GI50 in test [13] is 78.2 µM (inactive); in test [14], 33.2 µM (inactive); in test [15] it was 85.5 µM (inactive); in [16], 29.4 µM (inactive); in [17], 66.2 µM (inactive); in test [18], 60.5 µM (inactive). Moreover, the GI50 in [19] was 66.7 µM (inactive).

For the molecule `CCOC(=O)/C=C/[C@@H](CC)O[Si](C(C)C)(C(C)C)C(C)C`, the GI50 in test [1], in [2], in test [5], in test [6], in test [7] and in test [8] was > 100 µM (inactive) in each case. The GI50 is > 100 µM (inactive) in test [9]; 61.7 µM (inactive) in test [10]; 48.4 µM (inactive) in [11]; > 100 µM (inactive) in [20]; > 100 µM (inactive) in test [12]; > 100 µM (inactive) in test [14]. The GI50 is > 100 µM (inactive) in [15]; > 100 µM (inactive) in test [16]; > 100 µM (inactive) in test [17]; 67.3 µM (inactive) in [18]; > 100 µM (inactive) in test [19].

As for `Cc1nc(N)c(N2CCN(S(=O)(=O)N(Cc3ccccc3)Cc3ccccc3)CC2)c(O)n1`, the GI50 in test [2] was 58.6 µM (inactive); in test [3], 57.7 µM (inactive); in test [4], 28.5 µM (inactive); in test [5], 38.5 µM (inactive); in test [6], 85.1 µM (inactive); in [7] it was 21.9 µM (inactive). Further, the GI50 is 20.6 µM (inactive) in [8]; 28 µM (inactive) in test [9]; 20.4 µM (inactive) in test [10]; 26.4 µM (inactive) in test [11]; 23.2 µM (inactive) in test [20]; 32.7 µM (inactive) in [13]. For the same molecule, the GI50 was 10.9 µM (inactive) in [14]; 69.7 µM (inactive) in test [15]; 15.3 µM (inactive) in test [16]; 26.5 µM (inactive) in test [17]; 25.4 µM (inactive) in test [18].

For `COc1cc(-c2cc(=O)c3c(O)c(OC)c(OC)c(OC)c3o2)cc(OC)c1OC` [GARDENIN], the GI50 is 22.3 µM (inactive) in test [2]; > 60 µM (inactive) in test [3]; > 100 µM (inactive) in test [4]; > 100 µM (inactive) in test [5]; > 92.7 µM (inactive) in [6]; 15.1 µM (inactive) in test [7]. Besides, the GI50 in test [8] was 3.36 µM (inactive); in test [9] it was > 68.9 µM (inactive); in test [10], > 100 µM (inactive); in test [11], 8.47 µM (inactive); in [20] it was 17.1 µM (inactive); in test [12], 11 µM (inactive). In addition, the GI50 is 3.94 µM (inactive) in test [13]; 2.23 µM (inactive) in [14]; 10.2 µM (inactive) in [16]; 6.92 µM (inactive) in [17]; > 100 µM (inactive) in test [18]; 32.4 µM (inactive) in test [19].

On to `CC(C)=CCc1c2c(c3occ(-c4ccc(O)c(O)c4)c(=O)c3c1O)C=CC(C)(C)O2` [POMIFERIN], for which the GI50 in test [1] was 1.55 µM (inactive); in test [2], 4.86 µM (inactive); in test [4], 1.68 µM (inactive); in test [5], 1.75 µM (inactive); in test [6], 1.7 µM (inactive); in [7] it was 1.57 µM (inactive). In addition, the GI50 in test [8] was 1.66 µM (inactive); in test [9] it was 7.82 µM (inactive); in test [10], 1.61 µM (inactive); in test [11], 3.77 µM (inactive); in test [20], 1.91 µM (inactive); in test [12], 2.96 µM (inactive). Moreover, the GI50 in [13] is 1.58 µM (inactive); in test [14], 3.61 µM (inactive); in test [15], 0.714 µM (active); in test [16], 1.86 µM (inactive); in [17], 1.6 µM (inactive); in test [18], 1.91 µM (inactive). The GI50 in [19] is 3.85 µM (inactive).
